molecular target: human PTGES (Homo sapiens (Human), UniProt O14684); test: Human PTGES biochemical enzyme inhibition assay (conversion of PGH2 to PGE2, TR-FRET); conditions: Enzymatic conversion of PGH2 to PGE2; read-out: Human PTGES IC50
Procedure: Human PTGES Biochemical Enzyme Inhibition Assay:
PTGES (Microsomal prostaglandin E synthase 1) is an enzyme that converts prostaglandin H2 (PGH2) to prostaglandin E2 (PGE2) in the presence of reduced glutathione (GSH).
Recombinant proteins (human isoforms) of PTGES containing a FLAG tag, expressed in baculovirus infected insect cells (Hi-5) and purified by affinity chromatography was used as enzyme in the assay. Substrate was prostaglandin H2 (Cayman Chemicals).
4 ul of a solution of human PTGES in assay buffer [100 mM sodium phosphate pH 7.2, 2.5 mM Glutathion reduced, 1 mM EDTA, 0.01% BSA, 0.4 mM DTT, 0.15 mM n-dodecylmaltoside] was added to the well containing test compound and incubated for 15-20 minutes to allow binding of the compound to the enzyme prior to the enzymatic reaction. The reaction was started by addition of 1 ul of an ice cold solution containing PGH2 (40 nM in assay buffer resulting in a final concentration of 8 nM PGH2 in the assay). […] The concentration of each isoform of PTGES was adapted to the activity of the respective enzyme preparation to maintain linear reaction properties within the reaction time. […] The reaction was stopped by addition of 1 ul of a solution containing 15 mM SnCl2 and 400 mM KF in water. SnCl2 converts the remaining unstable PGH2 to stable PGF2alpha. Then, 3 ul of the a first detection solution containing PGE2-D2 (Cisbio Bioassays, TR-FRET reagent, diluted according to the manufacturer's recommendation, typically 1:20 in reconstitution buffer) was added. […] The resulting mix was incubated overnight at 4° C. to allow the formation of a complex of PGE2 and the detection reagents. […] Dilution series were made prior to the assay in a 100 fold concentrated form by serial dilution. IC50 values were calculated by 4-Parameter fitting.

human PTGES, sequence (O14684 whole entry): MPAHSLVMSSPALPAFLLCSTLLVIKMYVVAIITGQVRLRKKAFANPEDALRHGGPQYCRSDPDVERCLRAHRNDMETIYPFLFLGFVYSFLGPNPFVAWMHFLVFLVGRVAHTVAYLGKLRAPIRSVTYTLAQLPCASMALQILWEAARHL

| Compound | IC50 |
| --- | --- |
| CCc1cncc(-c2ccc(C(C(=O)Nc3cccc(CCC(=O)O)c3C)C3CCC3)cc2F)c1 (single isomer, unassigned; (-)) [Example 210, (−) 3-[3-({cyclobutyl[4-(5-ethylpyridin-3-yl)-3-fluorophenyl]acetyl}amino)-2-methylphenyl]propanoic acid, Single Enantiomer] | 35 nM |
| Cc1cncc(-c2ccc(C(C(=O)Nc3cccc(C(C)CC(=O)O)c3C)C3CCCC3)cc2)c1 (mixture of isomers) [Example 94, (3R/S)-3-[3-({(2R/S)-2-Cyclopentyl-2-[4-(5-methylpyridin-3-yl)phenyl]acetyl}amino)-2-methylphenyl]butanoic acid] | 32.3 nM |
| Cc1cc(C(C(=O)Nc2cccc(CCC(=O)O)c2C)C2CCCC2)c(Cl)cc1-c1cnc(C)c(Cl)c1 (racemic) [Example 174, (R/S) 3-[3-({[2-chloro-4-(5-chloro-6-methylpyridin-3-yl)-5-methylphenyl](cyclopentyl)acetyl}amino)-2-methylphenyl]propanoic acid] | 444 nM |
| Cc1c(CCC(=O)O)cccc1NC(=O)C(c1ccc(-c2cncc(CF)c2)cc1)C1CCCC1 (racemic) [Example 30, (R/S) 3-{3-[(Cyclopentyl{4-[5-(fluoromethyl)pyridin-3-yl]phenyl}acetyl)amino]-2-methylphenyl}propanoic acid] | 188 nM |
| Cc1c(CCC(=O)O)cccc1NC(=O)C(c1ccc(-c2cncc(Cl)c2)cc1)C1CCCCC1 (racemic) [Example 65, (R/S) 3-[3-({[4-(5-Chloropyridin-3-yl)phenyl](cyclohexyl)acetyl}amino)-2-methylphenyl]propanoic acid] | 196 nM |
| Cc1cc(-c2ccc(C(C(=O)Nc3cccc(C(C)CC(=O)O)c3C)C3CCCC3)cc2)cnc1C (mixture of isomers) [Example 93, (3R/S)-3-[3-({(2R/S)-2-Cyclopentyl-2-[4-(5,6-dimethylpyridin-3-yl)phenyl]acetyl}amino)-2-methylphenyl]butanoic acid] | 35.6 nM |
| CCC(CC(=O)O)c1cccc(NC(=O)C(c2ccc(-c3cncc(C)c3)cc2)C2CCCC2)c1C (racemic) [Example 104, (3R/S)-3-[3-({(2RS)-2-Cyclopentyl-2-[4-(5-methylpyridin-3-yl)phenyl]acetyl}amino)-2-methylphenyl]pentanoic acid] | 95.1 nM |
| Cc1ncc(-c2ccc(C(C(=O)Nc3cccc(CCC(=O)O)c3C)C3CCC3)cc2)cc1Cl (racemic) [Example 61, (R/S) 3-[3-({[4-(5-chloro-6-methylpyridin-3-yl)phenyl](cyclobutyl)acetyl}amino)-2-methylphenyl]propanoic acid] | 32.2 nM |
| Cc1c(NC(=O)C(c2ccc(-c3cncc(C(F)(F)F)c3)c(F)c2)C2CCCC2)cccc1C(C)CC(=O)O (single isomer, unassigned; stereoisomer 1) [Example 116, 3-{3-[(Cyclopentyl{3-fluoro-4-[5-(trifluoromethyl)pyridin-3-yl]phenyl}acetyl)amino]-2-methylphenyl}butanoic acid, Stereoisomer 1] | 3.49 nM |
| Cc1c(NC(=O)C(c2ccc(-c3cncc(Cl)c3)cc2)C2CCCC2)cccc1C(CC(=O)O)C1CC1 (mixture of isomers) [Example 110, (3R/S)-3-[3-({(2R/S)-2-[4-(5-chloropyridin-3-yl)phenyl]-2-cyclopentylacetyl}amino)-2-methylphenyl]-3-cyclopropylpropanoic acid] | 54.4 nM |
| Cc1c(CC(C)C(=O)O)cccc1NC(=O)C(c1ccc(-c2cncc(C(F)(F)F)c2)cc1)C1CCCC1 (single isomer, unassigned; stereoisomer 3) [Example 71, 3-{3-[(Cyclopentyl{4-[5-(trifluoromethyl)pyridin-3-yl]phenyl}acetyl)amino]-2-methylphenyl}-2-methylpropanoic acid, Stereoisomer 3] | 15900 nM |
